These compounds were tested against T1, Solute carrier family 2, facilitated glucose transporter member 4 (Rattus norvegicus, UniProt P19357) (assay: Induction of GLUT4 translocation in rat L6-GLUT4myc differentiated myotube cells after 20 mins by chemiluminescent method).
T1 sequence (P19357 whole entry): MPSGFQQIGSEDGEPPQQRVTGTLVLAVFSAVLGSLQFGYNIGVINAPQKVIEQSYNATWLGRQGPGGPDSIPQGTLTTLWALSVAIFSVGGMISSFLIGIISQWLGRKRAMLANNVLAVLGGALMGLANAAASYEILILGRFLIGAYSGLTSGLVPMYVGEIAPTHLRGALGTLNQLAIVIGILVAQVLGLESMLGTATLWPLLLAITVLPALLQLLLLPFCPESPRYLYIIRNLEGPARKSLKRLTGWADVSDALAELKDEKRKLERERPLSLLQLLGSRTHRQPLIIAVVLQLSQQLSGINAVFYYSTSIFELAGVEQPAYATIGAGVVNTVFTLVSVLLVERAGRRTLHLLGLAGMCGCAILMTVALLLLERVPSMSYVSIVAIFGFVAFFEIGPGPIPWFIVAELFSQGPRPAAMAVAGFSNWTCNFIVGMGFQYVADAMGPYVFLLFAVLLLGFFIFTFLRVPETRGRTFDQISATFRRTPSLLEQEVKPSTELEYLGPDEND

Compound	EC50
NC(=O)Cc1ccc(Nc2nnc(-c3ccccc3OCc3cscn3)c3sccc23)c(F)c1	110 nM
COCCOCCOc1ccccc1-c1nnc(Nc2ccc(CC(N)=O)cc2F)c2ccsc12	230 nM
CC(C)(C)OC(=O)NCCOCCOc1ccccc1-c1nnc(Nc2ccc(CC(N)=O)cc2F)c2ccsc12	24 nM
CC(C)(C)NC(=O)NCCOCCOc1ccccc1-c1nnc(Nc2ccc(CC(N)=O)cc2F)c2ccsc12	120 nM
NC(=O)Cc1ccc(Nc2nnc(-c3ccccc3OCc3ccccn3)c3sccc23)c(F)c1	140 nM
CC(C)(C)OC(=O)NCCCCOc1ccccc1-c1nnc(Nc2ccc(CC(N)=O)cc2F)c2ccsc12	47 nM
CCOC(=O)NCCCCOc1ccccc1-c1nnc(Nc2ccc(CC(N)=O)cc2F)c2ccsc12	230 nM

Continued, values first:

EC50	Compound
4700 nM	COc1ccccc1-c1nnc(Nc2ccc(CC(N)=O)cc2)c2c1CCC2
650 nM	COc1ccccc1-c1nnc(Nc2ccc(CC(N)=O)cc2F)c2ccsc12
76 nM	NC(=O)Cc1ccc(Nc2nnc(-c3ccccc3OCC3COCCO3)c3sccc23)c(F)c1 (stereo unspecified)
140 nM	COCCOc1ccccc1-c1nnc(Nc2ccc(CC(N)=O)cc2F)c2ccsc12

Reference: BindingDB's records for doi:10.1016/j.bmcl.2019.05.013 (Daiichi Sankyo, 2019)
